Laboratory results published in patent US20170107212A1, “NOVEL COMPOUNDS” (Bayer Pharma Aktiengesellschaft, priority 2014, published 2017).
Structures can show the parent of a compound that is named as a salt.

How the values were obtained:
[1] = system: constitutive active colorectal cancer cell (CRC) Wnt pathway, HCT116 TOPFlash; test: Cellular reporter assay, HCT116 Super TopFlash (constitutive active Wnt pathway), luciferase expression; format: cell-based; conditions: Homo sapiens, HCT-116, 36 h, HCT116 Super TopFlash reporter cells, 36 hours incubation, dilution series 50 μM to 15 nM
Protocol: In order to discover and characterize small molecules which inhibit the constitutive active colorectal cancer cell (CRC) Wnt pathway, a cellular reporter assay was employed. The corresponding assay cell was generated by transfection of the colorectal cancer cell line HCT116 (ATCC, #CCL-247) with the Super TopFlash vector (Morin, Science 275, 1997, 1787-1790; Molenaar et al., Cell 86 (3), 1996, 391-399). The HCT116 cell line is cultivated at 37° C. and 5% CO2 in DMEM/F-12 (Life Technologies, #11320-074), supplemented with 2 mM glutamine, 20 mM HEPES, 1.4 mM pyruvate, 0.15% Na-bicarbonate and 10% foetal bovine serum (GIBCO, #10270), this cancer cell line is pathophysiological relevant since it carries a deletion of position S45 in the β-catenin gene, leading to constitutive active Wnt signaling. Stable transfectants were generated by cotransfection with pcDNA3 and selection of stable transfected cells with 1 mg/ml G418.
(§1) In preparation of the assay, the two cell lines were plated 24 hours before at 10000 cells per well of a 384 micro titre plate (MTP) in 30 μL growth medium. Selective inhibitory activity for small molecules on the mutated Wnt pathway was determined after parallel incubation of both (TOP and FOP) HCT116 reporter cell lines with a compound dilution series from 50 μM to 15 nM in steps of 3.16-fold dilutions in CAFTY buffer (130 mM NaCl, 5 mM KCl, 20 mM HEPES, 1 mM MgCl2, 5 mM NaHCO3, pH 7.4) containing 2 mM Ca^2+ and 0.01% BSA. The compounds were thereby serially prediluted in 100% DMSO and thereafter in addition 50 fold into the CAFTY compound dilution buffer (described above). From this dilution 10 μL were added to the cells in 30 μL growth medium and incubated for 36 hours at 37° C. and 5% CO2. Thereafter luciferase assay buffer (1:1 mixture of luciferase substrate buffer (20 mM Tricine, 2.67 mM MgSO4, 0.1 mM EDTA, 4 mM DTT, 270 μM Coenzyme A, 470 μM Luciferin, 530 μM ATP, ph adjusted to pH 7.8 with a sufficient volume of 5M NaOH) and Triton buffer (30 mL Triton X-100, 115 mL glycerol, 308 mg Dithiothreitol, 4.45 g Na2HPO4.2H2O, 3.03 g TRIS HCl, ad 1 l H20, pH 7.8) was added as equal volume to the compound solution on the cells to determine luciferase expression as a measure of Wnt signaling activity in a luminometer.

HCT116 FOPFlash = test: Control reporter assay, HCT116 FOP control vector (non-functional TCF elements), luciferase expression; format: cell-based; conditions: Homo sapiens, HCT-116, 36 h, HCT116 FOP control reporter cells, 36 hours incubation, dilution series 50 μM to 15 nM
Protocol: In a parallel approach, HCT116 cells were cotransfected with the FOP control vector and pcDNA3. The FOP vector is identical to the TOP construct, but it contains instead of functional TCF elements a randomized, non-functional sequence. For this transfection a stable transfected cell line was generated as well.
as §1

| SMILES | IC50 [1] [µM] | IC50 (HCT116 FOPFlash) [µM] |
| --- | --- | --- |
| CN1CCN(C2(C(=O)Nc3cc(C(=O)Nc4nnc(-c5cccnc5)s4)ccc3OC(F)(F)F)CC2)CC1 [Example 19, 3-({[1-(4-methylpiperazin-1-yl)cyclopropyl]carbonyl}amino)-N-[5-(pyridin-3-yl)-1,3,4-thiadiazol-2-yl]-4-(trifluoromethoxy)benzamide hydrochloride] | 0.105 | ≥ 50 |
| O=C(CN1CCOCC1)Nc1cc(C(=O)Nc2ccc(-c3cncnc3)cn2)ccc1OC(F)(F)F [Example 1, 3-[(morpholin-4-ylacetyl)amino]-N-[5-(pyrimidin-5-yl)pyridin-2-yl]-4-(trifluoromethoxy)benzamide] | 0.145 | ≥ 50 |
| CN1CCN(CC(=O)Nc2cc(C(=O)Nc3nnc(-c4cncnc4)s3)ccc2OC(F)(F)F)CC1 [Example 87, 3-{[(4-methylpiperazin-1-yl)acetyl]amino}-N-[5-(pyrimidin-5-yl)-1,3,4-thiadiazol-2-yl)-4-(trifluoromethoxy)benzamide] | 18 | ≥ 50 |
| O=C(CN1CCOCC1)Nc1cc(C(=O)Nc2nnc(-c3cccnc3)s2)ccc1OC1CC1 [Example 35, 4-(cyclopropyloxy)-3-[(morpholin-4-ylacetyl)amino]-N-[5-(pyridin-3-yl)-1,3,4-thiadiazol-2-yl]benzamide] | 0.278 | ≥ 50 |
| CC(C(=O)Nc1cc(C(=O)Nc2ccc(-c3cnc(N)nc3)nc2)ccc1OC(F)(F)F)N1CCOCC1 (stereo not drawn) [Example 6] | 0.019 | ≥ 50 |
| Cc1nc(-c2nnc(NC(=O)c3ccc(OC(F)(F)F)c(NC(=O)CN4CCN(C)CC4)c3)s2)cs1 [Example 44, 3-{[(4-methylpiperazin-1-yl)acetyl]amino}-N-[5-(2-methyl-1,3-thiazol-4-yl)-1,3,4-thiadiazol-2-yl]-4-(trifluoromethoxy)benzamide] | 0.423 | ≥ 50 |
| CN1CCN(C2(C(=O)Nc3cc(C(=O)Nc4nnc(-c5cccnc5)s4)ccc3Cl)CC2)CC1 [Example 26, 4-chloro-3-({[1-(4-methylpiperazin-1-yl)cyclopropyl]carbonyl}amino)-N-[5-(pyridin-3-yl)-1,3,4-thiadiazol-2-yl]benzamide] | 0.5 | ≥ 50 |
| CN1CCN(CC(=O)Nc2cc(C(=O)Nc3cnc(-c4ccncc4)cn3)ccc2OC(F)(F)F)CC1 [Example 52, 3-{[(4-methylpiperazin-1-yl)acetyl]amino}-N-[5-(pyridin-4-yl)pyrazin-2-yl]-4-(trifluoromethoxy)benzamide] | 0.064 | ≥ 50 |
| O=C(CN1CCOCC1)Nc1cc(C(=O)Nc2nnc(-c3cncnc3)s2)ccc1OC1CC1 [Example 72, 4-(cyclopropyloxy)-3-[(morpholin-4-ylacetyl)amino]-N-[5-(pyrimidin-5-yl)-1,3-4-thiadiazol-2-yl)benzamide] | 1.3 | ≥ 50 |
| CN1CCN(CC(=O)Nc2cc(C(=O)Nc3cnc(-c4ccnc(N)c4)cn3)ccc2OC(F)(F)F)CC1 [Example 53, N-[5-(2-aminopyridin-4-yl)pyrazin-2-yl]-3-{[(4-methylpiperazin-1-yl)acetyl]amino}-4-(trifluoromethoxy)benzamide] | 2 | ≥ 50 |
| O=C(CN1CCOCC1)Nc1cc(C(=O)Nc2nnc(-c3ccccn3)s2)ccc1OC(F)(F)F [Example 80, 3-[{morpholin-4-ylacetyl)amino]-N-[5-(pyridin-2-yl)-1,3,4-thiadiazol-2-yl]-4-(trifluoromethoxy)benzamide] | 27.5 | ≥ 50 |
| CN1CCN(C2(C(=O)Nc3cc(C(=O)Nc4nnc(-c5cncnc5)s4)ccc3OC(F)(F)F)CC2)CC1 [Example 29, 3-({[1-(4-methylpiperazin-1-yl)cyclopropyl]carbonyl}amino)-N-[5-(pyrimidin-5-yl)-1,3,4-thiadiazol-2-yl]-4-(trifluoromethoxy)benzamide] | 0.206 | ≥ 50 |
| CN1CCN(CC(=O)Nc2cc(C(=O)Nc3ccc(-c4cccnc4F)cn3)ccc2OC(F)(F)F)CC1 [Example 13, N-(2′-fluoro-3,3′-bipyridin-6-yl)-3-{[(4-methylpiperazin-1-yl)acetyl]amino}-4-(trifluoromethoxy)benzamide] | 0.0415 | ≥ 50 |
| CN1CCN(C2(C(=O)Nc3cc(C(=O)Nc4nnc(-c5cnc(N)nc5)s4)ccc3OC(F)(F)F)CC2)CC1 [Example 32, N-[5-(2-aminopyrimidin-5-yl)-1,3,4-thiadiazol-2-yl]-3-({[1-(4-methylpiperazin-1-yl)cyclopropyl]carbonyl}amino)-4-(trifluoromethoxy)benzamide] | 0.128 | ≥ 50 |
| COc1ccc(NC(=O)c2ccc(-c3cccs3)nc2)cc1NC(=O)CN1CCOCC1 [Example 24, N-{4-methoxy-3-[(morpholin-4-ylacetyl)amino]phenyl}-6-(thiophen-2-yl)pyridine-3-carboxamide] | 4 | ≥ 50 |
| O=C(CN1CCOCC1)Nc1cc(C(=O)Nc2cnc(-c3cccnc3)s2)ccc1OC1CC1 [Example 76, 4-(cyclopropyloxy)-3-[(morpholin-4-ylacetyl)amino]-N-[2-(pyridin-3-yl)-1,3-thiazol-5-yl]benzamide] | 0.155 | ≥ 50 |
| CC(C(=O)Nc1cc(C(=O)Nc2ccc(-c3ccc(N)nc3)nc2)ccc1OC(F)(F)F)N1CCOCC1 (stereo not drawn) [Example 3, N-(6′-amino-2,3′-bipyridin-5-yl)-3-{[2-(morpholin-4-yl)propanoyl]amino}-4-(trifluoromethoxy)benzamide] | 0.0209 | ≥ 50 |

Next, values leading:

| IC50 [1] [µM] | IC50 (HCT116 FOPFlash) [µM] | SMILES |
| --- | --- | --- |
| ≥ 50 | ≥ 50 | O=C(CN1CCOCC1)Nc1cc(C(=O)Nc2nnc(-c3ccncc3)s2)ccc1OC1CC1 [Example 116, 4-(cyclopropyloxy)-3-[(morpholin-4-ylacetyl)amino]-N-[5-(pyridin-4-yl)-1,3,4-thiadiazol-2-yl]benzamide] |
| ≥ 50 | ≥ 50 | O=C(CN1CCOCC1)Nc1cc(C(=O)Nc2ccc(-c3cccnc3)cn2)ccc1OC1CC1 [Example 118, N-(3,3′-bipyridin-6-yl)-4-(cyclopropyloxy)-3-[(morpholin-4-ylacetyl)amino]benzamide] |
| 12.2 | ≥ 50 | O=C(CN1CCOCC1)Nc1cc(C(=O)Nc2nnc(-c3cncs3)s2)ccc1OC(F)(F)F [Example 103, 3-[(morpholin-4-ylacetyl)amino)-N-[5-(1,3-thiazol-5-yl)-1,3,4-thiadiazol-2-yl]-4-(trifluoromethoxy)benzamide] |
| ≥ 50 | ≥ 50 | Cc1ncsc1-c1nnc(NC(=O)c2ccc(OC(F)(F)F)c(NC(=O)CN3CCN(C)CC3)c2)s1 [Example 111, 3-{[(4-methylpiperazin-1-yl)acetyl]amino}-N-[5-(4-methyl-1,3-thiazol-5-yl)-1,3,4-thiadiazol-2-yl]-4-(trifluoromethoxy)benzamide] |
| 17.9 | ≥ 50 | Nc1ncc(-c2nnc(NC(=O)c3ccc(OC(F)(F)F)c(NC(=O)CN4CCOCC4)c3)s2)s1 [Example 104, N-[5-(2-amino-1,3-thiazol-5-yl)-1,3,4-thiadiazol-2-yl]-3-[(morpholin-4-ylacetyl)amino]-4-(trifluoromethoxy)benzamide] |
| ≥ 50 | ≥ 50 | Nc1ccc(-c2nnc(NC(=O)c3ccc(OC4CC4)c(NC(=O)CN4CCOCC4)c3)s2)cn1 [Example 119, N-[5-(6-aminopyridin-3-yl)-1,3,4-thiadiazol-2-yl]-4-(cyclopropyloxy)-3-[(morpholin-4-ylacetyl)amino]benzamide] |
| 21.2 | ≥ 50 | Cc1csc(-c2nnc(NC(=O)c3ccc(OC(F)(F)F)c(NC(=O)CN4CCOCC4)c3)s2)n1 [Example 92, N-[5-(4-methyl-1,3-thiazol-2-yl)-1,3,4-thiadiazol-2-yl]-3-[(morpholin-4-ylacetyl)amino]-4-(trifluoromethoxy)benzamide] |
